Assay results as given in patent US8664387B2, “Pyridoquinazolinone M1 receptor positive allosteric modulators” (Merck Sharp & Dohme Corp., priority 2009, dated 2014).

Biological target: T1, acetylcholine muscarinic M1 receptor (Homo sapiens, UniProt P11229)
T1 construct: expressed in transfected cells; host or cells: CHOnfat cells (CHOnfat/hM1; geneticin selection)
T1 sequence (P11229 1-460): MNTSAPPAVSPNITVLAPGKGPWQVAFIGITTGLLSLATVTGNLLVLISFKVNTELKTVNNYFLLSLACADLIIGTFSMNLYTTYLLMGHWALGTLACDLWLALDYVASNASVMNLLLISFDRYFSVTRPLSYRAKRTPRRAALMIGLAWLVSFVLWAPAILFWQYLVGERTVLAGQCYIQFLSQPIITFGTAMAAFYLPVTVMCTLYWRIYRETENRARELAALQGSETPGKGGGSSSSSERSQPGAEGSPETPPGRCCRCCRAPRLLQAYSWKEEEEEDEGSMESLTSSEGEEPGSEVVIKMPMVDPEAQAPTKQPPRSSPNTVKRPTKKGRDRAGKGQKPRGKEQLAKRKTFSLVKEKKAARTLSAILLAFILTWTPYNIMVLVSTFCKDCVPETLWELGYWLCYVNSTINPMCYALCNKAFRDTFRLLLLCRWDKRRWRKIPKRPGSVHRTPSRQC
Assay: muscarinic FLIPR calcium assay, M1 positive allosteric modulation
Format: cell-based
Conditions: CHOnfat/hM1 cells, FLIPR intracellular Ca2+, 4 min preincubation, then EC20 acetylcholine (3 nM final); read-out: IP Value (inflection point)
Experimental: The assay studies the effect of one or several concentrations of test compounds on basal or acetylcholine-stimulated Ca^2+ levels using FLIPR.
Compounds are prepared and subjected to a preincubation period of 4 min. Thereafter, a single EC20 concentration of acetylcholine is added to each well (3 nM final). The intracellular Ca^2+ level of each sample is measured and compared to an acetylcholine control to determine any modulatory activity.
Cells: CHOnfat/hM1, hM2, hM3 or hM4 cells are plated 24 hr before the assay at a density of 18,000 cells/well (100 μL) in a 384 well plate. CHOnfat/hM1 and CHOnfat/hM3 Growth Medium: 90% DMEM (Hi Glucose); 10% HI FBS; 2 mM L-glutamine; 0.1 mM NEAA; Pen-Strep; and 1 mg/ml Geneticin, are added. For M2Gqi5CHOnfat and M4Gqi5CHOnfat cells, an additional 600 ug/ml hygromycin is added.
Equipment: 384 well plate, 120 μL addition plate; 96-well Whatman 2 ml Uniplate Incubator, 37° C., 5% CO2; Skatron EMBLA-384 Plate Washer; Multimek Pipetting System; Genesis Freedom 200 System; Mosquito System; Temo Nanoliter Pipetting System; and FLIPR^384 Fluorometric Imaging Plate Reader System are used.
Buffers. Assay Buffer: Hanks Balanced Salt Solution, with 20 mM Hepes, 2.5 mM Probenecid (Sigma P-8761) first dissolved in 1 N NaOH, 1% Bovine Serum Albumin (Sigma A-9647). Dye Loading Buffer: Assay Buffer plus 1% Fetal Bovine Serum and Fluo-4AM/Pluronic Acid Mixture. 2 mM Fluo-4AM ester stock in DMSO (Molecular Probes F-14202) Concentration of 2 μM in buffer for a final concentration of 1 μM in Assay. 20% Pluronic Acid Solution stock, with concentration of 0.04% in Buffer, 0.02% in Assay.
65 μL of 2 mM Fluo-4AM are mixed with 130 μL of 20% Pluronic Acid. The resulting solution and 650 μL FBS is added to the assay buffer for a total volume of 65 mL. Positive Controls: 4-Br-A23187: 10 mM in DMSO; final concentration 10 μM. Acetylcholine: 10 mM in water, working stock at both 20 μM and 30 µM in assay buffer, final concentration of 10 μM. This is used to check the maximum stimulation of the CHOK1/hM1 cells. 20 μM (2×) acetylcholine is added in the preincubation part of the assay, and the 30 μM (3×) stock is added in the second part. (EC20)Acetylcholine: 10 mM in water, working stock of 9 nM (3×), and final concentration in assay is 3 nM. This is used after the preincubation with test compounds. Addition of the EC20 Acetylcholine to each well with a test compound will ascertain any modulator activity. 24 wells contain 3 nM Acetylcholine alone as a control.
Determining Activity of Putative Compounds: • Screening Plate: Compounds are titrated in 96-well plates (columns 2-11), 100% DMSO, started at a concentration of 15 mM (150× stock concentration), and 3-fold serial dilutions using Genesis Freedom200 System. Four 96-well plates are combined into a 384-well plate using Mosquito Nanoliter Pipetting System by transferring 1 μl of serial diluted compounds to each well, and 1 mM acetylcholine (100× stock concentration) were added as a control. Using Temo, 49 μl assay buffer is added to each well of the 384-well plate right before assay.
In a 96-well Whatman 2 ml Uniplate, 9 nM Acetylcholine (3×) is pipetted into wells corresponding to the screening compounds, and into control wells. The 30 μM acetylcholine control (3×) is added into control wells, and the 3× agonist plate is transferred into a 384 well plate.
Cells are washed three times with 100 μL of buffer, leaving 30 μL of buffer in each well. Using Multimek, 30 μL of Dye Loading Buffer is added into each well and incubated at 37° C., 5% CO2 for up to one hr.
After 60 min, the cells are washed three times with 100 μL of buffer, leaving 30 μL of buffer in each well. The cell plate, screening plate, and agonist addition plates are placed on the platform in the FLIPR and the door closed. A signal test to check background fluorescence and basal fluorescence signal is performed. Laser intensity is adjusted if necessary. […]

| EC50 [nM] | SMILES |
| --- | --- |
| 29 | O=c1c2cc(Cc3ccc(-n4cccn4)nc3)c3ncccc3c2ncn1[C@H]1CCCC[C@@H]1O [Example 7, 3-[(1S,2S)-2-Hydroxycyclohexyl]-6-{[6-(1H-pyrazol-1-yl)pyridine-3-yl]methyl}pyrido[2,3-h]quinazolin-4(3H)-one] |
| 6 | Cn1cc(-c2ccc(Cc3cc4c(=O)n([C@H]5CCCC[C@@H]5O)cnc4c4ccncc34)cn2)cn1 [Example 8, 3-[(1S,2S)-2-Hydroxycyclohexyl]-6-{[6-(1-methyl-1H-pyrazol-4-yl)pyridine-3-yl]methyl}pyrido[3,4-h]quinazolin-4(3H)-one] |
| 92 | CC(O)c1ccc(Cc2cc3c(=O)n([C@H]4CCCC[C@@H]4O)cnc3c3ccncc23)cc1 (stereo partly drawn) [Example 11, 3-[(1S,2S)-2-Hydroxycyclohexyl]-6-[4-(1-hydroxyethyl)benzyl]pyrido[3,4-h]quinazolin-4(3H)-one] |
| 91 | O=c1c2cc(Cc3ccc(N4CCOCC4)cc3)c3cnccc3c2ncn1[C@H]1CCCC[C@@H]1O [Example 13, 3-[(1S,2S)-2-Hydroxycyclohexyl]-6-(4-morpholin-4-ylbenzyl)pyrido[3,4-h]quinazolin-4(3H)-one] |
| 71 | CSc1ccc(Cc2cc3c(=O)n([C@H]4CCCC[C@@H]4O)cnc3c3ccncc23)cn1 [Example 6, 3-[(1S,2S)-2-Hydroxycyclohexyl]-6-{[6-(methylthio)pyridine-3-yl]methyl}pyrido[3,4-h]quinazolin-4(3H)-one] |
| 110 | COc1ccc(Cc2cc3c(=O)n([C@H]4CCCC[C@@H]4O)cnc3c3ccncc23)cn1 [Example 5, 3-[(1S,2S)-2-Hydroxycyclohexyl]-6-[(6-methoxypyridin-3-yl)methyl]pyrido[3,4-h]quinazolin-4(3H)-one] |
| 64 | O=c1c2cc(Cc3ccc(-c4cnccn4)nc3)c3cnccc3c2ncn1[C@H]1CCCC[C@@H]1O [Example 9, 3-[(1S,2S)-2-Hydroxycyclohexyl]-6-[(6-pyrazin-2-ylpyridin-3-yl)methyl]pyrido[3,4-h]quinazolin-4(3H)-one] |
| 36 | O=Cc1ccc(Cc2cc3c(=O)n([C@H]4CCCC[C@@H]4O)cnc3c3ccncc23)cc1 [Example 10, 4-({3-[(1S,2S)-2-Hydroxycyclohexyl]-4-oxo-3,4-dihydropyrido[3,4-h]quinazolin-6-yl}methyl)benzaldehyde] |
| 851 | Cc1cc(Cc2cc3c(=O)n([C@H]4COCC[C@@H]4O)cnc3c3cccnc23)ccn1 [Example 14, 3-[(3S,4S)-4-Hydroxytetrahydro-2H-pyran-3-yl]-6-[(2-methylpyridin-4-yl)methyl]pyrido[2,3-h]quinazolin-4(3H)-one] |
| 130 | CCC(O)c1ccc(Cc2cc3c(=O)n([C@H]4CCCC[C@@H]4O)cnc3c3ccncc23)cc1 (stereo partly drawn) [Example 12, 3-[(1S,2S)-2-Hydroxycyclohexyl]-6-[4-(1-hydroxypropyl)benzyl]pyrido[3,4-h]quinazolin-4(3H)-one] |
| 176 | O=c1c2cc(Cc3ccc(Cl)nc3)c3cnccc3c2ncn1[C@H]1CCOC[C@@H]1O [Example 2, 6-[(6-Chloropyridin-3-yl)methyl]-3-[(3R,4S)-3-hydroxytetrahydro-2H-pyran-4-yl]pyrido[3,4-h]quinazolin-4(3H)-one] |
| 41 | Cc1ccc(Cc2cc3c(=O)n([C@H]4CCCC[C@@H]4O)cnc3c3ccncc23)cn1 [Example 4, 3-[(1S,2S)-2-Hydroxycyclohexyl]-6-[(6-methylpyridin-3-yl)methyl]pyrido[3,4-h]quinazolin-4(3H)-one] |
| 38 | O=c1c2cc(Cc3ccc(Cl)nc3)c3cnccc3c2ncn1[C@H]1CCCC[C@@H]1O [Example 1, 6-[(6-Chloropyridin-3-yl)methyl]-3-[(1S,2S)-2-hydroxycyclohexyl]pyrido[3,4-h]quinazolin-4(3H)-one] |
